Laboratory results taken from paper PMC10467532, “Design, synthesis, and biological evaluation of thiazole/thiadiazole carboxamide scaffold-based derivatives as potential c-Met kinase inhibitors for cancer treatment” (Journal of Enzyme Inhibition and Medicinal Chemistry, 2023).

What was measured:
FHC = test: MTT cytotoxicity assay, normal FHC cells; details: Homo sapiens, 48 h, read-out: IC50 FHC
Procedure: (§1) MTT assay was used to determine the cytotoxic activity of target compounds against different cell lines. […] Then, the cells were treated with five doses of test compounds (pre-dissolved in DMSO), and 0.1% DMSO was used as a negative control. […] The results expressed as IC50 were the average of three determinations calculated by using the Bacus Laboratories Incorporated Slide Scanner (Bliss) software.

MKN-45 = test: MTT antiproliferative assay, MKN-45; details: Homo sapiens, MKN-45, 48 h, read-out: IC50 MKN-45
Procedure: as §1

MDA-MB-231 = test: MTT antiproliferative assay, MDA-MB-231; details: Homo sapiens, MDA-MB-231, 48 h, read-out: IC50 MDA-MB-231
Procedure: as §1

c-Met = biological target: T1, c-Met (Homo sapiens, UniProt P08581); test: In vitro c-Met enzymatic assay (HTRF); format: biochemical; details: HTRF assay; mean ± SD, triplicate; read-out: IC50 against c-Met
T1 construct: purchased Invitrogen (Waltham, MA)
Procedure: Inhibition of target compounds on c-Met kinase activity was measured by using the homogeneous time-resolved fluorescence (HTRF) assay.
The tyrosine kinases inhibitory activities of target compounds were evaluated in 384-well microtiter plates using purified kinases purchased from Invitrogen (Waltham, MA) by homogeneous time-resolved fluorescence (HTRF) assay. The HTRF KinEASE TK kit was performed according to the instructions. After the kinases and test compounds were incubated at 25–30 °C for 5 min, the kinase reactions were initiated by addition of 39 μL of kinase reaction buffer solution and incubated at 25–30 °C for 30 min. The reactions were quenched by addition 10 µL mixed detection solution. […] The inhibition rate (%) was calculated using the following equation: inhibition rate = [(activity of enzyme with tested compound – min)/(max – min)] × 100 (max: the enzyme activity in the presence of enzyme, substrates and cofactors; min: the enzyme activity in the presence of substrates, cofactors and in the absence of enzyme). IC50 value was calculated from the inhibition curve using GraphPad Prism 5.0 software (La Jolla, CA).

HT-29 = test: MTT antiproliferative assay, HT-29; details: Homo sapiens, HT-29, 48 h, read-out: IC50 HT-29
Procedure: as §1

A549 = test: MTT antiproliferative assay, A549; details: Homo sapiens, A549, 48 h, read-out: IC50 A549
Procedure: as §1

HUVEC = test: MTT cytotoxicity assay, normal HUVEC cells; details: Homo sapiens, 48 h, read-out: IC50 HUVEC
Procedure: as §1

T1 sequence (P08581 25-1390): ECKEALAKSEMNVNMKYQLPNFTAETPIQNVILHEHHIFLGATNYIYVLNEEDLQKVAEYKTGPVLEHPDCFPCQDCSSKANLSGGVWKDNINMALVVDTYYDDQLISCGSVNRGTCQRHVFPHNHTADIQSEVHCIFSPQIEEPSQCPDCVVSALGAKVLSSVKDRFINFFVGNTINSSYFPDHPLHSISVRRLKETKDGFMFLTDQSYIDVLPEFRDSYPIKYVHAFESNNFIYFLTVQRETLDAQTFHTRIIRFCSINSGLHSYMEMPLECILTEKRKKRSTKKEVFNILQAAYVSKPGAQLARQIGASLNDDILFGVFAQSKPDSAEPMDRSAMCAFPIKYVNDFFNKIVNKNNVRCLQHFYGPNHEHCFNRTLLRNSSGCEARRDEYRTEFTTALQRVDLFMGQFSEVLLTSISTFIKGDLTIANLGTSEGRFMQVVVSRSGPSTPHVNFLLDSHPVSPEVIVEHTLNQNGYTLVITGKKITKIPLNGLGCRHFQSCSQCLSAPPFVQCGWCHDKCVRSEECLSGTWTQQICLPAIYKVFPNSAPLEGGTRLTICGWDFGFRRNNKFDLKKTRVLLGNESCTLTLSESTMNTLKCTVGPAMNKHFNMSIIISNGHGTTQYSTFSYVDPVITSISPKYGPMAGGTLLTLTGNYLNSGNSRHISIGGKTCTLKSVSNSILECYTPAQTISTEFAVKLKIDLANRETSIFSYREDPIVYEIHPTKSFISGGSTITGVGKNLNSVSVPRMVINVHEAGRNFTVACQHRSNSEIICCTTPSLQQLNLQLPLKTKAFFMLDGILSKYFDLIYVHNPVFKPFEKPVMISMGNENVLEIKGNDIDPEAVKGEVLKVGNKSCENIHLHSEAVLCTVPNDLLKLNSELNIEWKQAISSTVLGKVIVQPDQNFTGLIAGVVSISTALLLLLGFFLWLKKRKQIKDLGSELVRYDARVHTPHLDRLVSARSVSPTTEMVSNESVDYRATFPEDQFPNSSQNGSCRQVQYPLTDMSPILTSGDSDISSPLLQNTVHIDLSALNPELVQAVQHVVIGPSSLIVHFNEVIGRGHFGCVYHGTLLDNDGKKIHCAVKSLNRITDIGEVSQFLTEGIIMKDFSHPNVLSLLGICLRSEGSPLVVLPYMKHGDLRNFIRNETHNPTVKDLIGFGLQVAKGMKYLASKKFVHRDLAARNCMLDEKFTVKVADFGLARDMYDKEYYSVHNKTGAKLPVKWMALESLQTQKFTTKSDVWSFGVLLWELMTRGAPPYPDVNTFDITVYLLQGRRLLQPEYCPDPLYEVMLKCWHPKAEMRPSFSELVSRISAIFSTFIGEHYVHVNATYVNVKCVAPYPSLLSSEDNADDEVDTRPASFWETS

Row | SMILES | melting point | IC50 (FHC) | IC50 (MKN-45) | IC50 (MDA-MB-231) | IC50 (c-Met) | IC50 (HT-29) | IC50 (A549) | IC50 (HUVEC)
1 | COc1cc2nccc(Oc3ccc(NC(=O)c4ncc(-c5ccccc5)s4)cc3)c2cc1OC [Compound 51g, N-(4-((6,7-Dimethoxyquinolin-4-yl)oxy)phenyl)-5-phenylthiazole-2-carboxamide] | 260 to 262 °C | 54.5 ± 3.25 µM | 6.21 ± 0.85 µM | 32.8 ± 2.23 µM | 0.0394 ± 0.00325 µM | 23.4 ± 1.58 µM | 17.4 ± 2.23 µM | 48.4 ± 2.54 µM
2 | COc1cc2nccc(Oc3ccc(NC(=O)c4nc(-c5ccccc5)cs4)cc3F)c2cc1OC [Compound 51j, N-(4-((6,7-Dimethoxyquinolin-4-yl)oxy)-3-fluorophenyl)-4-phenylthiazole-2-carboxamide] | 90 to 92 °C | > 100 µM | 4.58 ± 0.75 µM | 32.3 ± 2.78 µM | 0.0295 ± 0.00342 µM | 19.6 ± 2.89 µM | 13.8 ± 1.76 µM | 45.6 ± 5.12 µM
3 | O=C(Nc1ccc(Oc2ccnc(Cl)c2)c(F)c1)c1nc(-c2ccc(F)c(Cl)c2)cs1 [Compound 51ak, 4-(3-Chloro-4-fluorophenyl)-N-(4-((2-chloropyridin-4-yl)oxy)-3-fluorophenyl)thiazole-2-carboxamide] | 168 to 170 °C | 13.2 ± 0.84 µM | 0.22 ± 0.04 µM | 4.24 ± 0.68 µM | 0.00389 ± 0.00052 µM | 1.56 ± 0.32 µM | 1.81 ± 0.34 µM | 8.52 ± 1.35 µM
4 | COc1cc2nccc(Oc3ccc(NC(=O)c4nc(-c5ccccc5)ns4)cc3)c2cc1OC [Compound 51a, N-(4-((6,7-Dimethoxyquinolin-4-yl)oxy)phenyl)-3-phenyl-1,2,4-thiadiazole-5-carboxamide] | 145 to 147 °C | > 100 µM | 9.25 ± 0.86 µM | > 50 µM | 0.0566 ± 0.00482 µM | 24.4 ± 1.68 µM | 26.4 ± 1.24 µM | > 100 µM
5 | O=C(Nc1ccc(Oc2ccnc(Cl)c2)c(F)c1)c1nc(-c2ccccc2)cs1 [Compound 51w, N-(4-((2-Chloropyridin-4-yl)oxy)-3-fluorophenyl)-4-phenylthiazole-2-carboxamide] | 205 to 207 °C | 48.2 ± 5.04 µM | 2.53 ± 0.62 µM | 26.3 ± 3.09 µM | 0.0243 ± 0.00167 µM | 12.5 ± 2.39 µM | 7.26 ± 1.37 µM | 38.6 ± 3.53 µM
6 | O=C(Nc1ccc(Oc2ccnc(Cl)c2)c(F)c1)c1nc(-c2cccc(F)c2)cs1 [Compound 51ab, N-(4-((2-Chloropyridin-4-yl)oxy)-3-fluorophenyl)-4-(3-fluorophenyl)thiazole-2-carboxamide] | 189 to 191 °C | 20.2 ± 3.62 µM | 1.49 ± 0.63 µM | 10.1 ± 1.88 µM | 0.0232 ± 0.00216 µM | 6.95 ± 0.82 µM | 6.02 ± 0.87 µM | 12.7 ± 0.83 µM
7 | COc1cc2nccc(Oc3ccc(NC(=O)c4nc(-c5ccccc5)cs4)c(Cl)c3)c2cc1OC [Compound 51k, N-(2-Chloro-4-((6,7-dimethoxyquinolin-4-yl)oxy)phenyl)-4-phenylthiazole-2-carboxamide] | 201 to 203 °C | > 100 µM | 6.87 ± 0.86 µM | 33.3 ± 4.21 µM | 0.033 ± 0.00266 µM | 23.4 ± 4.32 µM | 14.5 ± 1.64 µM | > 100 µM
8 | COc1cc2nccc(Oc3ccc(NC(=O)c4nc(-c5ccccc5)cs4)cc3)c2cc1OC [Compound 51e, N-(4-((6,7-Dimethoxyquinolin-4-yl)oxy)phenyl)-4-phenylthiazole-2-carboxamide] | 63 to 65 °C | 64.5 ± 6.12 µM | 5.86 ± 0.93 µM | > 50 µM | 0.0345 ± 0.00465 µM | 21.8 ± 1.66 µM | 16.6 ± 2.16 µM | 56.5 ± 4.81 µM
9 | COc1cc2ncnc(Oc3ccc(NC(=O)c4nc(-c5ccc(F)cc5)cs4)cc3F)c2cc1OC [Compound 51p, N-(4-((6,7-Dimethoxyquinazolin-4-yl)oxy)-3-fluorophenyl)-4-(4-fluorophenyl)thiazole-2-carboxamide] | 188 to 190 °C | 46.4 ± 6.24 µM | 3.17 ± 0.84 µM | 28.1 ± 1.96 µM | 0.0247 ± 0.00195 µM | 15.2 ± 2.26 µM | 9.83 ± 1.22 µM | 33.6 ± 2.68 µM
